Like-named read-outs stand apart in the source and are kept apart here.
Columns and labels:
[1] = molecular target: human α2β3γ2 GABAARs (benzodiazepine site) (Homo sapiens (Human), UniProt P18507+P47869); experiment: In vitro radioligand binding assay ([3H]Ro15-1788 displacement), α2-GABAAR Ki
Procedure: The affinity (Ki) of compounds for the benzodiazepine site of human recombinant GABAARs was measured by their ability to inhibit the binding of the selective benzodiazepine antagonist [^3H]Ro15-1788 ([^3H] flumazenil).
Mouse L(tk^−) cells stably expressing human α1β3γ2, α2β3γ2, α3β3γ2, α5β3γ2 GABAARs were generated by transfection of the individual subunits in the dexamethasone-inducible expression vector pMSGneo in mouse L(tk^−) cells (Hadingham et al., 1993, Mol. Pharmacol. 43:970-975 and 1993, Mol. Pharmacol. 44:1211-1218).
L(tk^−) cells stably expressing human α1β3γ2, α2β3γ2, α3β3γ2, α5β3γ2 GABAARs were maintained in DMEM F12 medium supplemented with 10% Foetal Bovine Serum, 1% Penicillin/Streptomycin and 1 mg/mL Geneticin G418 in an incubator at 37° C. with a humidified atmosphere with 5% CO2. Dexamethasone was added to the culture medium to induce GABAAR expression.
L(tk−) cells were harvested and membranes were prepared for each receptor combination in either TE buffer (10 mM Tris·CI/0.1 mM EDTA, pH 7.5) or phosphate buffer (K2PO4 10 mM, pH 7.0) (Hadingham et al. (1992) Proc. Natl. Acad. Sci. USA; 89 (14): 6378-82). Protein concentration, receptor expression and the Kd of [^3H]Ro15-1788 were determined before Ki value of the compounds were evaluated. For Kd evaluation, saturation binding curves were obtained by incubating membrane with various concentrations of [^3H]Ro15-1788 (82.5 Ci/mM), with nonspecific binding measured in the presence of 1-3 μM TP003.
For Ki evaluation, cell membranes were incubated with 4 nM [^3H]Ro15-1788 along with a range of concentrations of test compound. Nonspecific binding was determined using 1-3 μM TP003. All incubations were performed for 1 hour at 4° C. in assay buffer. The total assay volume was 0.5 mL, containing 40 μg/well α1β3γ2, 30 μg/well α2β3γ2, 40 μg/well α3β3γ2 and 30 μg/well for α5β3γ2 of membrane protein. Incubations were terminated by filtration and washing with ice cold Tris-HCl buffer (50 mM, pH=7.4) over Whatman GF/B filters and the radioactivity of the filters was measured using liquid scintillation counting.
The % inhibition of [^3H]Ro15-1788 binding was plotted as a function of compound concentration and the IC50 calculated. From the IC50, the affinity (Ki) was calculated using the method of Cheng and Prusoff using the Kd values obtained for [^3H]Ro15-1788.

human α2β3γ2 GABAARs = experiment: In vitro electrophysiological recording assay (automated patch-clamp), α2-GABAAR relative efficacy; type: cell-based; conditions: % efficacy normalised to diazepam; GABA EC10-20; concentration generally >= 100 times Ki
Procedure: The efficacy of modulators was evaluated using the automated patch-clamp platforms QPatch16 (Sophion, Copenhagen, Denmark) or SyncroPatch 384PE (Nanion, Germany).
For QPatch electrophysiology testing L(tk^−) cells stably expressing human α1β3γ2, α2β3γ2, α3β3γ2, α5β3γ2 GABAARs were used. HEK293 cells stably expressing human α1β3γ2L, α2β3γ2L, α3β3γ2L and α5β3γ2L GABAARs were used for the SyncroPatch 384PE experiments.
All experiments were carried out at room temperature (20-22° C.) using a standard whole cell procedure and physiological solutions. Gigaseals were formed upon execution of a combined suction/voltage protocol with subsequent increased suction leading to the whole-cell configuration.
The currents recorded were acquired at either 1 KHz or 2 KHz and filtered using a Bessel filter. Whole-cell currents were measured at a holding potential of-65 mV (QPatch) or −80 mV (SyncroPatch).
For QPatch experiments, the extracellular solution contained of: 145 mM NaCl, 4 mM KCl, 1 mM MgCl2, 2 mM CaCl2), 10 mM HEPES, 10 mM D-glucose (pH 7.4), and the intracellular solution consisted of: 96 mM KCl, 28 mM CsCl, 25 mM KOH, 4.3 mM CaCl2), 1.4 mM MgCl2, 10 mM EGTA, 10 mM HEPES, 3 mM MgATP (pH 7.2). The osmolarities of the extracellular and intracellular solutions were 305 and 295 mOsm respectively.
For SyncroPatch experiments, the extracellular recording solution contained: 140 mM NaCl, 4 mM KCl, 2 mM CaCl2), 1 mM MgCl2, 10 mM HEPES, 5 mM glucose (pH 7.4 with NaOH and osmolarity of c. 300-310 mOsm). The intracellular recording solution consisted of: 90 mM KCl, 50 mM KF, 1.5 mM MgCl2, 11.1 mM EGTA and 10 mM HEPES (pH 7.2 with KOH and osmolarity of c. 300 mOsm). 2 mM of NaATP was added to the intracellular solution on the day of testing.
The effects of modulators were evaluated in the presence of a submaximal GABA concentration, giving typically less than 30% activation of the response elicited by a saturating GABA concentration. To check and ensure baseline current stability before compound addition, two to five consecutive applications of GABA EC10-20 separated by wash steps were performed before compound addition. The test compound was applied 1 min at least prior to co-application with GABA EC10-20. Following a further wash step, a saturating concentration of GABA was applied at the end of each recording, allowing the accurate evaluation for each cell of the percentage baseline activation elicited by the submaximal GABA applied.
The compounds were first dissolved in DMSO as a 10 mM stock and then further diluted to the testing concentrations so that the final DMSO concentration in the extracellular recording solution was 0.1% (QPatch) or 0.2% (SyncroPatch).
The % efficacy of modulators was determined from the GABA elicited currents recorded in the presence and absence of the test compound, using the formula:
[((compound peak current−leak)−(GABA peak current-leak))/(GABA peak current−leak)]*100,
where ‘leak’ is the leak baseline current at the holding potential, ‘compound peak current’ is the current elicited by co-application of compound and GABA, and ‘GABA peak current’ is the current elicited by GABA alone at the last GABA application before compound addition. The results were presented as ‘relative efficacy’ for each compound generally at a concentration equal or higher than 100 times their determined Ki. The relative efficacy of a compound was calculated by normalising its % efficacy to the corresponding % efficacy of diazepam that was separately determined.

[2] = L(tk-) cell membranes, 4 nM [3H]Ro15-1788, read-out: α2-GABAAR Ki

Sequence of human α2β3γ2 GABAARs (benzodiazepine site) (P47869 29-451): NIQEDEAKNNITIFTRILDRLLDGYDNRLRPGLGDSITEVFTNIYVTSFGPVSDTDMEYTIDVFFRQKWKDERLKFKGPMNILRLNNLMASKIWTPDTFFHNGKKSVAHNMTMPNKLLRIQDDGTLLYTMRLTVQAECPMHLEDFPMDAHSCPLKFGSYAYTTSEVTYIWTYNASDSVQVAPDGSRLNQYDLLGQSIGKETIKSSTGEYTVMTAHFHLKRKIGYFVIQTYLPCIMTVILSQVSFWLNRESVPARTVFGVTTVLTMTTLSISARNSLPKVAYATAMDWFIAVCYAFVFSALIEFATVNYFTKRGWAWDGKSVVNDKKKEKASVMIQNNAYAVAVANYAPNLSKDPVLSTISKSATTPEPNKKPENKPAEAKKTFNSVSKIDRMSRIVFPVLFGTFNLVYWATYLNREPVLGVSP
Sequence of human α2β3γ2 GABAARs (benzodiazepine site) (P28472 26-473 partner): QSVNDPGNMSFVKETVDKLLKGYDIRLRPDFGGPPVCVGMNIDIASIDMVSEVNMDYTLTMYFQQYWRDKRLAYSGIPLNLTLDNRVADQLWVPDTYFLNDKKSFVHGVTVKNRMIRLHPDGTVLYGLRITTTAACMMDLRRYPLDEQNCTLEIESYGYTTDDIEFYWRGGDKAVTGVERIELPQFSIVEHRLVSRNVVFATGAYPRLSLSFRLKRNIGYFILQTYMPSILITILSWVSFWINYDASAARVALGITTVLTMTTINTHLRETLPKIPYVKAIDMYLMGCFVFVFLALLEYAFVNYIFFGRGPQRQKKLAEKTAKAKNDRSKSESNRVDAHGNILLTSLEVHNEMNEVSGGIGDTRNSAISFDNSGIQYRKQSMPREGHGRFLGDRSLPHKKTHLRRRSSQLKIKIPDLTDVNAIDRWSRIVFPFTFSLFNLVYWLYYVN
Sequence of human α2β3γ2 GABAARs (benzodiazepine site) (P18507 40-475): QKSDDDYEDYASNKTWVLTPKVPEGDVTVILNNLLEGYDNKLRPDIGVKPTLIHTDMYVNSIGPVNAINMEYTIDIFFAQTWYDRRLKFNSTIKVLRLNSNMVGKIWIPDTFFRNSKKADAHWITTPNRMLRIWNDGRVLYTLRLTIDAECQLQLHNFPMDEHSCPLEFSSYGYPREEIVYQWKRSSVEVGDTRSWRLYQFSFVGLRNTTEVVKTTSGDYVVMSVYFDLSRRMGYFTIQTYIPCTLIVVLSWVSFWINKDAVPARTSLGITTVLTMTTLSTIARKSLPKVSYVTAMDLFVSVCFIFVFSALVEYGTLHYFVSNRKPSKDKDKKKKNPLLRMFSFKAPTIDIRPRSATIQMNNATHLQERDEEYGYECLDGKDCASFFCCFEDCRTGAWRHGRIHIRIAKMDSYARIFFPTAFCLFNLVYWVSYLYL

Structure (SMILES): CCCNC(=O)c1c(N)c2cccc(-c3cccc(OC(F)(F)F)n3)c2[nH]c1=O [Example 1, 4-Amino-2-oxo-N-propyl-8-[6-(trifluoromethoxy)-2-pyridyl]-1H-quinoline-3-carboxamide]
- Ki [1]: 0.79 nM
- α2-GABAAR Relative Efficacy (vs. Diazepam) (human α2β3γ2 GABAARs): 0.13

Structure (SMILES): CCCNC(=O)c1c(N)c2cccc(-c3cccc(C(F)F)n3)c2[nH]c1=O [Example 3, 4-Amino-8-[6-(difluoromethyl)-2-pyridyl]-2-oxo-N-propyl-1H-quinoline-3-carboxamide]
- Ki [1]: 1.99 nM
- α2-GABAAR Relative Efficacy (vs. Diazepam) (human α2β3γ2 GABAARs): 0.29

Structure (SMILES): CCCNC(=O)c1c(N)c2cccc(-c3ncc(F)cc3F)c2[nH]c1=O [Example 6, 4-Amino-8-(3,5-difluoro-2-pyridyl)-2-oxo-N-propyl-1H-quinoline-3-carboxamide]
- Ki [1]: 0.87 nM
- α2-GABAAR Relative Efficacy (vs. Diazepam) (human α2β3γ2 GABAARs): 0.10

Structure (SMILES): CCCNC(=O)c1c(N)c2cccc(-c3nc(OCC)ccc3F)c2[nH]c1=O [Example 9, 4-Amino-8-(6-ethoxy-3-fluoropyridin-2-yl)-2-oxo-N-propyl-1,2-dihydroquinoline-3-carboxamide]
- Ki [1]: 0.25 nM
- α2-GABAAR Relative Efficacy (vs. Diazepam) (human α2β3γ2 GABAARs): 0.23

Structure (SMILES): CCCNC(=O)c1c(N)c2cccc(-c3nc(COC)ccc3F)c2[nH]c1=O [Example 10, 4-Amino-8-(3-fluoro-6-(methoxymethyl)pyridin-2-yl)-2-oxo-N-propyl-1,2-dihydroquinoline-3-carboxamide]
- Ki [1]: 1.5 nM
- α2-GABAAR Relative Efficacy (vs. Diazepam) (human α2β3γ2 GABAARs): 0.22

Structure (SMILES): CCCNC(=O)c1c(N)c2cccc(-c3nc(CO)ccc3C)c2[nH]c1=O [Example 12, 4-Amino-8-(6-(hydroxymethyl)-3-methylpyridin-2-yl)-2-oxo-N-propyl-1,2-dihydroquinoline-3-carboxamide]
- Ki [1]: 8.17 nM
- α2-GABAAR Relative Efficacy (vs. Diazepam) (human α2β3γ2 GABAARs): 0.38

Structure (SMILES): CCCNC(=O)c1c(N)c2cccc(-c3cnccc3C)c2[nH]c1=O [Example 15, 4-Amino-8-(4-methylpyridin-3-yl)-2-oxo-N-propyl-1,2-dihydroquinoline-3-carboxamide]
- Ki [1]: 4.09 nM
- α2-GABAAR Relative Efficacy (vs. Diazepam) (human α2β3γ2 GABAARs): 0.17

Structure (SMILES): CCCNC(=O)c1c(N)c2cccc(-c3cnccc3F)c2[nH]c1=O [Example 16, 4-Amino-8-(4-fluoropyridin-3-yl)-2-oxo-N-propyl-1,2-dihydroquinoline-3-carboxamide]
- Ki [1]: 24.1 nM
- α2-GABAAR Relative Efficacy (vs. Diazepam) (human α2β3γ2 GABAARs): 0.34

Structure (SMILES): CNC(=O)c1c(N)c2cccc(-c3cnccc3OC)c2[nH]c1=O [Example 55, 4-Amino-8-(4-methoxy-3-pyridyl)-N-methyl-2-oxo-1H-quinoline-3-carboxamide]
- Ki [1, 2]: 159 nM

Structure (SMILES): COc1ccncc1-c1cccc2c(N)c(C(=O)NC3CC3)c(=O)[nH]c12 [Example 57, 4-Amino-N-cyclopropyl-8-(4-methoxy-3-pyridyl)-2-oxo-1H-quinoline-3-carboxamide]
- Ki [1]: 73.3 nM

Structure (SMILES): COc1ccncc1-c1cccc2c(N)c(C(=O)NC3COC3)c(=O)[nH]c12 [Example 58, 4-Amino-8-(4-methoxy-3-pyridyl)-N-(oxetan-3-yl)-2-oxo-1H-quinoline-3-carboxamide]
- Ki [1, 2]: 154 nM

Structure (SMILES): COc1ccncc1-c1cccc2c(N)c(C(=O)NCC(F)F)c(=O)[nH]c12 [Example 61, 4-Amino-N-(2,2-difluoroethyl)-8-(4-methoxy-3-pyridyl)-2-oxo-1H-quinoline-3-carboxamide]
- Ki [1, 2]: 107 nM

Structure (SMILES): COc1ccncc1-c1cccc2c(N)c(C(=O)NCC(C)(F)F)c(=O)[nH]c12 [Example 65, 4-Amino-N-(2,2-difluoropropyl)-8-(4-methoxy-3-pyridyl)-2-oxo-1H-quinoline-3-carboxamide]
- Ki [1]: 55.2 nM

Structure (SMILES): COc1ccncc1-c1cccc2c(N)c(C(=O)NCCCO)c(=O)[nH]c12 [Example 66, 4-Amino-N-(3-hydroxypropyl)-8-(4-methoxy-3-pyridyl)-2-oxo-1H-quinoline-3-carboxamide]
- Ki [1]: 18.6 nM

Structure (SMILES): Nc1c(C(=O)NC2CC2)c(=O)[nH]c2c(-c3cnccc3OC(F)F)cccc12 [Example 70, 4-Amino-N-cyclopropyl-8-[4-(difluoromethoxy)-3-pyridyl]-2-oxo-1H-quinoline-3-carboxamide]
- Ki [1, 2]: > 500 nM

Structure (SMILES): COCCNC(=O)c1c(N)c2cccc(-c3cnccc3OC(F)F)c2[nH]c1=O [Example 71, 4-Amino-8-[4-(difluoromethoxy)-3-pyridyl]-N-(2-methoxyethyl)-2-oxo-1H-quinoline-3-carboxamide]
- Ki [1, 2]: > 500 nM

Structure (SMILES): Cc1nn(C)cc1-c1cccc2c(N)c(C(=O)NCC3COC3)c(=O)[nH]c12 [Example 72, 4-Amino-8-(1,3-dimethyl-1H-pyrazol-4-yl)-N-(oxetan-3-ylmethyl)-2-oxo-1,2-dihydroquinoline-3-carboxamide]
- Ki [1, 2]: > 500 nM

Structure (SMILES): Cc1nn(C)cc1-c1cccc2c(N)c(C(=O)NCCC#N)c(=O)[nH]c12 [Example 74, 4-Amino-N-(2-cyanoethyl)-8-(1,3-dimethylpyrazol-4-yl)-2-oxo-1H-quinoline-3-carboxamide]
- Ki [1, 2]: > 500 nM

Structure (SMILES): Cc1nn(C)cc1-c1cccc2c(N)c(C(=O)NCCCN(C)C)c(=O)[nH]c12 [Example 75, 4-Amino-N-[3-(dimethylamino)propyl]-8-(1,3-dimethylpyrazol-4-yl)-2-oxo-1H-quinoline-3-carboxamide]
- Ki [1, 2]: 171 nM

Structure (SMILES): CCCNC(=O)c1c(N)c2cccc(-c3cnccc3OC)c2n(C)c1=O [Example 77, 4-Amino-8-(4-methoxy-3-pyridyl)-1-methyl-2-oxo-N-propyl-quinoline-3-carboxamide]
- Ki [1]: 2.77 nM

Structure (SMILES): CCCNC(=O)c1c(N)c2ccnc(-c3cnccc3OC)c2[nH]c1=O [Example 84, 4-Amino-8-(4-methoxypyridin-3-yl)-2-oxo-N-propyl-1,2-dihydro-1,7-naphthyridine-3-carboxamide]
- Ki [1]: 75.5 nM

Reference: patent publication US20250197368A1 (priority 2020, published 2025)
